{
  "source": "patent US9023987B2",
  "about": "“Cell-permeable peptide” (Seoul National University R&DB Foundation, priority 2010, dated 2015)",
  "key": {"[1]": {"system": "human mesenchymal stem cells (hMSC)", "experiment": "Cell permeability by fluorescence imaging (confocal scanning microscope)", "assay_type": "cell-based", "details": "FITC/fluorescence-labeled, FIG. 3A, FIG. 7", "procedure": "The domains synthesized in Example 1 and Comparative Examples 1 and 2 were labeled with a fluorescent material in order to measure cell permeability. 10 equivalents of fluorescein isothiocyanate (FITC) was bound to N-terminals of the synthesized domains by using triethylamine (1 ml per 1 g of resin). The synthesis of the peptide was confirmed by measuring the molecular weight thereof through MALDI-TOF.\nIn order to measure the cell permeability of the cell permeable peptide-bone differentiation inducing sequence conjugate, after sterile slide glass was input in a 6-well plate and 2×10^4 human mesenchymal stem cells (hMSC) were plated in each well, the cells were cultured in a general medium for 20 hours (overnight incubation). Then the cells was cultured in an hMSC basal medium (MSCBM, LONZA, USA) containing 0.5% fetal bovine serum (FBS, GIBCO, USA) for 20 hours (overnight starvation). […] fluorescence labeled cell permeable peptide-bone differentiation inducing sequence conjugate and […] fluorescence labeled bone differentiation inducing sequence that were obtained by binding FITC (SIGMA, USA) N-terminals of the cell permeable peptide-bone differentiation inducing sequence conjugate synthesized by the method in Example 1 and the domain in Comparative Example 2 to synthesize the fluorescence label conjugate and fluorescence label domain, followed by isolation and purification, were injected into each well and washed with phosphate buffer solution (PBS) two times after 20 minutes and 80 minutes of injection. The resultants was observed using a confocal scanning microscope (IX 70, Olympus Co., Tokyo, Japan)."}, "[2]": {"system": "human mesenchymal stem cells (hMSC)", "experiment": "Cell differentiation ability by Alizarin red S staining", "assay_type": "cell-based", "details": "10 mM, hard tissue-forming medium, 14 days, compared with PBS; FIG. 4A a-c", "procedure": "In order to confirm cell differentiation ability of the cell permeable peptide-bone differentiation inducing sequence conjugate by the amount of phosphorylated calcium, human mesenchymal stem cells (hMSC) were seeded in a 24-well plate at 1×10^3/well, and then treated with the cell permeable peptide-bone differentiation inducing sequence conjugate synthesized from Example 1 and the bone differentiation inducing sequence of Comparative Example 2 of […] for each, and then incubated in a hard tissue-forming medium for 14 days. The hard tissue-forming medium contained an MSCBM medium containing 15% FBS (fetal bovine serum), […] of L-ascorbic acid, 10^−7 M dexamethasone, 1% antibiotic-antimycotic solution, and 10 mM beta-glycerol phosphate. After completion of the incubation, the medium was removed, and then the cells were washed with phosphate buffer solution (PBS) twice. The cells were fixed using 90% ethanol at 4° C. for 15 minutes, followed by washing with distilled water twice, and then stained with 2% Alizarin red S Solution (pH 4.2; Alizarin red S powder, Junsei, JAPAN)."}, "[3]": {"system": "human mesenchymal stem cells (hMSC)", "experiment": "Cell differentiation ability by calcein staining", "assay_type": "cell-based", "design": "dose or concentration left out as unconfirmed", "details": "hard tissue-forming medium with calcein, 14 days, compared with PBS; FIG. 4A g-i", "procedure": "In order to confirm cell differentiation ability of the cell permeable peptide-bone differentiation inducing sequence conjugate, human mesenchymal stem cells (hMSC) were seeded in each well of a 4-well chamber slide at 5×10^3/well, and then incubated in a general medium for 20 hours (overnight) for cell stabilization. The cells were treated with the cell permeable peptide-bone differentiation inducing sequence conjugate synthesized from Example 1 and the bone differentiation inducing sequence of Comparative Example 2 of […] for each, and then incubated in a hard tissue forming medium containing calcein (calcium staining, green) for 14 days. The composition of the hard tissue-forming medium consisted of an MSCBM medium containing 15% FBS (fetal bovine serum), […] of L-ascorbic acid, 10^−7 M dexamethasone, 1% antibiotic-antimycotic solution, and 10 mM beta-glycerol phosphate. After completion of the incubation, the medium was removed, and then the cells were washed with phosphate buffer solution (PBS) twice. The cells washed with the phosphate buffer solution were fixed with 10% NBF (neutral buffered formalin), and then the nucleus was stained (Hoechst 33342, blue). […]"}, "[4]": {"system": "ALP, OCN, and RUNX2", "experiment": "Bone differentiation marker genes by quantitative real-time PCR and electrophoresis", "assay_type": "cell-based, human", "details": "EtBr agarose gel, compared with PBS; FIG. 4C", "procedure": "In order to confirm cell differentiation ability of the cell permeable peptide-bone differentiation inducing sequence conjugate through bone tissue differentiation marker genes, human mesenchymal stem cells (hMSC) were seeded in each well of a 6 cm-dish at 1×10^5/well, and then incubated in a general medium for 20 hours (overnight) for cell stabilization. After 20 hours of incubation, the cells were treated with the cell permeable peptide-bone differentiation inducing sequence conjugate and 10 μm of the bone differentiation inducing sequence of Comparative Example 2 for 72 hours.\nAfter that, the entire RNA was separated from the treated cells, using a Trizol® reagent (reagent for isolating RNA from cell and tissue samples) (Invitrogen Life Technologies, USA), according to the manufacturer's instructions, and the amount and purity of the entire RNA were measured by the spectrophotometer. […]\nIn order to carry out the quantitative real-time PCR, cDNA to be used as a template and primers were mixed, like in RT-PCR, and then 10 μl of SYBR® Green Premix Ex Taq (TaKaRa, JAPAN) was mixed therewith to prepare a reaction material. […] The CT value of each gene was […] the CT value for housekeeping GAPDH gene and the value calculated based on the negative control was taken, so that comparison in the degree of mRNA expression was conducted (Shin et al., (2007) Plant J. 49, 981-994)."}},
  "data": [
    {"substance": "NH2-GAPPPADSAP-SSRKKNPNCRRH-C-COONH2 (H-GAPPPADSAPSSRKKNPNCRRHC-NH2; cysteine pairing not given here) [Example 1]", "values": [
      {"measurement": "intracellular fluorescence after 20 minutes (confocal)", "setting": "[1]; 20 minutes", "result": "fluorescent particles were observed in the cytoplasm"},
      {"measurement": "intracellular fluorescence after 80 minutes (confocal)", "setting": "[1]; 80 minutes", "result": "clearly observed in the cytoplasm and nucleus"},
      {"measurement": "differentiation into osteoblast, Alizarin red S staining of phosphorylated calcium", "setting": "[2]", "result": "relatively strong staining degree of phosphorylated calcium"},
      {"measurement": "calcein staining degree of phosphorylated calcium", "setting": "[3]", "result": "relatively strong staining degree of phosphorylated calcium"},
      {"measurement": "bands of ALP, OCN, and RUNX2 PCR products (electrophoresis)", "setting": "[4]", "result": "noticeably increased bands"}
    ]}
  ]
}
